Measured values: ChEMBL document CHEMBL1201862, “PubChem BioAssay data set” (2004)
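In this assay, cells in 96-well plates receive the compound at five concentrations for 48 hours. Endpoints are linearly interpolated between the surrounding concentrations. GI50 = concentration required for 50% inhibition of growth.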 Activity calls are given as the source filed them. Rule as the data show it: active = GI50 up to about 1.1 µM and inactive = higher.

What was measured:
Assay in all cases: DTP human tumour cell line panel, 48 h
M14 = tested on: M14
RPMI-8226 = tested on: RPMI-8226
SK-MEL-2 = tested on: SK-MEL-2
SF-268 = tested on: SF-268
SN12C = tested on: SN12C
NCI-H522 = tested on: NCI-H522
NCI/ADR-RES = tested on: NCI/ADR-RES
HOP-62 = tested on: HOP-62
PC-3 = tested on: PC-3
KM12 = tested on: KM12
HT-29 = tested on: HT-29
OVCAR-3 = tested on: OVCAR-3
K562 = tested on: K562
MDA-N = tested on: MDA-N
HL-60 = tested on: HL-60
UACC-62 = tested on: UACC-62
NCI-H460 = tested on: NCI-H460
MCF7 = tested on: MCF7
MOLT-4 = tested on: MOLT-4
CCRF-CEM = tested on: CCRF-CEM

Measured: GI50

Cc1ccc(S(=O)(=O)n2cncc2CO)cc1
inactive: M14 > 100 µM | RPMI-8226 > 100 µM | SK-MEL-2 > 100 µM | SF-268 > 100 µM | SN12C > 100 µM | NCI-H522 > 100 µM | NCI/ADR-RES > 100 µM | HOP-62 > 100 µM | PC-3 > 100 µM | KM12 > 100 µM | HT-29 > 100 µM | OVCAR-3 > 100 µM | K562 > 100 µM | MDA-N > 100 µM | HL-60 > 100 µM | UACC-62 > 100 µM | NCI-H460 > 100 µM | MCF7 > 100 µM | MOLT-4 > 100 µM | CCRF-CEM > 100 µM

Cc1nc2[nH]ncn2c(=O)c1CCO
inactive: M14 > 10 µM | RPMI-8226 > 10 µM | SK-MEL-2 > 10 µM | SF-268 > 10 µM | SN12C > 10 µM | NCI-H522 > 10 µM | NCI/ADR-RES > 10 µM | HOP-62 > 10 µM | PC-3 > 10 µM | HT-29 > 10 µM | K562 > 10 µM | MDA-N > 10 µM | HL-60 > 10 µM | UACC-62 > 10 µM | NCI-H460 > 10 µM | MCF7 > 10 µM | MOLT-4 > 10 µM | CCRF-CEM > 10 µM

CCCCN1CSC(=S)N(Cc2ccccc2)C1
inactive: M14 > 82.8 µM | RPMI-8226 24.9 µM | SK-MEL-2 > 59.3 µM | SF-268 49.7 µM | SN12C > 71 µM | NCI-H522 23.9 µM | NCI/ADR-RES 54.3 µM | HOP-62 > 100 µM | PC-3 63.5 µM | KM12 31.1 µM | HT-29 58.6 µM | OVCAR-3 33.7 µM | K562 31.8 µM | MDA-N 37.6 µM | HL-60 3.56 µM | UACC-62 41.2 µM | NCI-H460 31.9 µM | MCF7 31.3 µM | MOLT-4 25.6 µM | CCRF-CEM 4.47 µM

CN(C)c1ccc(/C=C/C(=O)N[C@@H]2C(=O)N3[C@@H]2SC(C)(C)[C@@H]3C(=O)O)cc1
inactive: M14 > 100 µM | RPMI-8226 > 100 µM | SK-MEL-2 > 100 µM | SF-268 > 100 µM | SN12C > 100 µM | NCI-H522 > 100 µM | NCI/ADR-RES > 100 µM | HOP-62 > 100 µM | PC-3 > 100 µM | KM12 > 100 µM | HT-29 > 100 µM | OVCAR-3 > 100 µM | K562 > 100 µM | MDA-N > 100 µM | HL-60 > 100 µM | UACC-62 > 100 µM | NCI-H460 > 100 µM | MCF7 > 100 µM | MOLT-4 > 100 µM | CCRF-CEM > 100 µM

COc1cc(CCC(=O)O)c2cc3ccccc3cc2c1O
inactive: M14 21.7 µM | RPMI-8226 12.4 µM | SK-MEL-2 18.3 µM | SF-268 19.6 µM | SN12C 17.8 µM | NCI-H522 20.7 µM | NCI/ADR-RES 25.6 µM | HOP-62 17.6 µM | PC-3 18.5 µM | KM12 20.5 µM | HT-29 21.1 µM | OVCAR-3 21.4 µM | K562 20.8 µM | MDA-N 17.3 µM | HL-60 16.5 µM | UACC-62 18.4 µM | NCI-H460 23.2 µM | MCF7 16.4 µM | MOLT-4 8.89 µM | CCRF-CEM 3.22 µM

O=C(Nc1cccc(C(=O)NCCCO)c1)/C(=C/c1ccccc1)NC(=O)c1ccccc1
inactive: M14 > 100 µM | RPMI-8226 > 100 µM | SK-MEL-2 > 100 µM | SF-268 > 100 µM | SN12C > 100 µM | NCI-H522 > 100 µM | NCI/ADR-RES > 100 µM | HOP-62 > 100 µM | PC-3 > 100 µM | KM12 > 100 µM | HT-29 > 100 µM | OVCAR-3 > 100 µM | K562 > 100 µM | MDA-N > 100 µM | HL-60 > 100 µM | UACC-62 > 100 µM | NCI-H460 > 100 µM | MCF7 > 100 µM | MOLT-4 84.1 µM | CCRF-CEM > 100 µM

CCOC1CC(=O)c2c(Br)sc(Br)c21 (centres undefined)
inactive: M14 17.1 µM | RPMI-8226 17.9 µM | SK-MEL-2 17.5 µM | SF-268 28.6 µM | SN12C 24.9 µM | NCI-H522 28.5 µM | NCI/ADR-RES 37.6 µM | HOP-62 18.5 µM | PC-3 20.8 µM | KM12 19.3 µM | HT-29 21.3 µM | OVCAR-3 14.6 µM | K562 17.3 µM | MDA-N 22.3 µM | HL-60 20.4 µM | UACC-62 18.7 µM | NCI-H460 20.7 µM | MCF7 21.2 µM | MOLT-4 14.3 µM | CCRF-CEM 7.31 µM

C=C1c2nc3ccccc3n2C=C(c2ccccc2)N1c1ccc([N+](=O)[O-])cc1
inactive: M14 8.57 µM | RPMI-8226 8.81 µM | SK-MEL-2 17.7 µM | SF-268 8.11 µM | SN12C 7.89 µM | NCI-H522 3.67 µM | NCI/ADR-RES 7.18 µM | HOP-62 4.92 µM | PC-3 15.3 µM | KM12 4.14 µM | HT-29 3.47 µM | OVCAR-3 7.06 µM | K562 7.35 µM | MDA-N 7.6 µM | HL-60 7.01 µM | UACC-62 7.26 µM | NCI-H460 1.72 µM | MCF7 3.61 µM | MOLT-4 29.2 µM | CCRF-CEM 9.46 µM

CC(C)c1cccc(C(C)C)c1OS(=O)(=O)NC(=O)OC(C(F)(F)F)C(F)(F)F
inactive: M14 19.2 µM | RPMI-8226 16.4 µM | SK-MEL-2 35.8 µM | SF-268 95.7 µM | SN12C 33.2 µM | NCI-H522 39.5 µM | NCI/ADR-RES 32.7 µM | HOP-62 34.8 µM | PC-3 36.7 µM | KM12 43.7 µM | K562 24.5 µM | MDA-N 56.9 µM | HL-60 37.6 µM | NCI-H460 46.7 µM | MCF7 32 µM | MOLT-4 20 µM | CCRF-CEM 6.81 µM

CN(NC(=O)c1cccs1)C1=NCCCN1
inactive: M14 > 100 µM | RPMI-8226 > 100 µM | SK-MEL-2 > 100 µM | SF-268 > 100 µM | NCI-H522 > 100 µM | NCI/ADR-RES > 100 µM | HOP-62 > 100 µM | PC-3 > 100 µM | KM12 > 100 µM | HT-29 > 100 µM | OVCAR-3 > 100 µM | K562 > 100 µM | MDA-N > 100 µM | HL-60 > 100 µM | UACC-62 > 100 µM | NCI-H460 > 100 µM | MCF7 > 100 µM | MOLT-4 > 100 µM | CCRF-CEM > 100 µM
